Results as given in ChEMBL document CHEMBL1201862, “PubChem BioAssay data set” (2004).
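Following 48 hours of exposure in 96-well plates, responses at five concentrations were used to interpolate endpoints linearly. GI50 = concentration required for 50% inhibition of growth.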 Active and inactive are the calls of the source. Cut-off read from the data, not from the text of the source: active = GI50 up to about 1.1 µM and inactive = higher.

Legend:
Assay in all cases: NCI anticancer screen, dose series, 48 h
PC-3 = system: PC-3
A549 = system: A549
RPMI-8226 = system: RPMI-8226
T47D = system: T47D
SR = system: SR
MCF7 = system: MCF7
OVCAR-4 = system: OVCAR-4
HCC 2998 = system: HCC 2998
MDA-N = system: MDA-N
HOP-92 = system: HOP-92
NCI-H226 = system: NCI-H226
BT-549 = system: BT-549
ACHN = system: ACHN
CCRF-CEM = system: CCRF-CEM
TK-10 = system: TK-10
U-251 = system: U-251
OVCAR-5 = system: OVCAR-5
NCI-H460 = system: NCI-H460
COLO 205 = system: COLO 205
M14 = system: M14
DU-145 = system: DU-145
SK-OV-3 = system: SK-OV-3
SNB-75 = system: SNB-75
A498 = system: A498
MDA-MB-435 = system: MDA-MB-435
SNB-19 = system: SNB-19
SW-620 = system: SW-620
K562 = system: K562
IGROV-1 = system: IGROV-1
786-0 = system: 786-0
SK-MEL-2 = system: SK-MEL-2
HL-60 = system: HL-60
UO-31 = system: UO-31
NCI-H522 = system: NCI-H522
SN12C = system: SN12C
SF-295 = system: SF-295
SK-MEL-5 = system: SK-MEL-5
EKVX = system: EKVX
UACC-62 = system: UACC-62
HCT-116 = system: HCT-116
MDA-MB-231 = system: MDA-MB-231
KM12 = system: KM12
MOLT-4 = system: MOLT-4
UACC-257 = system: UACC-257
RXF 393 = system: RXF 393
SF-268 = system: SF-268
CAKI-1 = system: CAKI-1
HOP-62 = system: HOP-62
NCI-H23 = system: NCI-H23
Hs-578T = system: Hs-578T
HT-29 = system: HT-29
HCT-15 = system: HCT-15
Malme-3M = system: Malme-3M
SK-MEL-28 = system: SK-MEL-28
NCI/ADR-RES = system: NCI/ADR-RES
LOX IMVI = system: LOX IMVI
OVCAR-3 = system: OVCAR-3
SF-539 = system: SF-539
OVCAR-8 = system: OVCAR-8

`O=C(O)CN1CCNCCN(CP(=O)(O)O)CC1` was tested, and the GI50 (PC-3) was 9.73 µM (inactive), the GI50 (A549) was 4.89 µM (inactive) and the GI50 (RPMI-8226) was 5.52 µM (inactive). For the same compound, the GI50 (T47D) was > 100 µM (inactive), the GI50 (SR) was > 20.2 µM (inactive) and the GI50 (MCF7) was 6.22 µM (inactive). The GI50 (OVCAR-4) was 24.6 µM (inactive), the GI50 (HCC 2998) was 3.28 µM (inactive) and the GI50 (MDA-N) was 5.35 µM (inactive). The GI50 (HOP-92) was 22.3 µM (inactive), the GI50 (NCI-H226) was > 39.1 µM (inactive) and the GI50 (BT-549) was > 100 µM (inactive). The GI50 (ACHN) was > 100 µM (inactive), the GI50 (CCRF-CEM) was 4.94 µM (inactive) and the GI50 (TK-10) was > 37.2 µM (inactive). For the same compound, the GI50 (U-251) was > 24.3 µM (inactive), the GI50 (OVCAR-5) was 6.52 µM (inactive) and the GI50 (NCI-H460) was 3.44 µM (inactive). The GI50 (COLO 205) was 2.84 µM (inactive), the GI50 (M14) was 16.6 µM (inactive) and the GI50 (DU-145) was > 100 µM (inactive). The GI50 (SK-OV-3) was 11.8 µM (inactive), the GI50 (SNB-75) was 14.2 µM (inactive) and the GI50 (A498) was > 19.7 µM (inactive). The GI50 (MDA-MB-435) was > 53 µM (inactive), the GI50 (SNB-19) was > 100 µM (inactive) and the GI50 (SW-620) was 4.49 µM (inactive). The GI50 (K562) was 3.92 µM (inactive), the GI50 (IGROV-1) was 4.15 µM (inactive) and the GI50 (786-0) was 4.83 µM (inactive). For the same compound, the GI50 (SK-MEL-2) was 7.03 µM (inactive), the GI50 (HL-60) was 3.22 µM (inactive) and the GI50 (UO-31) was 53.2 µM (inactive). For the same compound, the GI50 (NCI-H522) was 2.58 µM (inactive), the GI50 (SN12C) was > 100 µM (inactive) and the GI50 (SF-295) was 26.2 µM (inactive). The GI50 (SK-MEL-5) was 4.28 µM (inactive), the GI50 (EKVX) was 13.2 µM (inactive) and the GI50 (UACC-62) was 8.69 µM (inactive). The GI50 (HCT-116) was 3.87 µM (inactive), the GI50 (MDA-MB-231) was > 70.1 µM (inactive) and the GI50 (KM12) was 5.47 µM (inactive). The GI50 (MOLT-4) was 4.34 µM (inactive), the GI50 (UACC-257) was > 33.8 µM (inactive) and the GI50 (RXF 393) was 6.89 µM (inactive). The GI50 (SF-268) was 22.3 µM (inactive), the GI50 (CAKI-1) was > 100 µM (inactive) and the GI50 (HOP-62) was > 100 µM (inactive). For the same compound, the GI50 (NCI-H23) was > 100 µM (inactive), the GI50 (Hs-578T) was > 30.1 µM (inactive) and the GI50 (HT-29) was 2.02 µM (inactive). The GI50 (HCT-15) was 4.25 µM, the GI50 (Malme-3M) was 1.75 µM (inactive) and the GI50 (SK-MEL-28) was > 100 µM (inactive).
In the case of `O=S(=O)(N1CCCCN(S(=O)(=O)C(F)(F)F)CCCN(S(=O)(=O)C(F)(F)F)CCCCN(S(=O)(=O)C(F)(F)F)CCCN(S(=O)(=O)C(F)(F)F)CCCCN(S(=O)(=O)C(F)(F)F)CCCN(S(=O)(=O)C(F)(F)F)CCCCN(S(=O)(=O)C(F)(F)F)CCC1)C(F)(F)F`, the GI50 (PC-3) is reported as > 31.6 µM (inactive), the GI50 (A549) is reported as > 31.6 µM (inactive) and the GI50 (RPMI-8226) is reported as 78.7 µM (inactive). The GI50 (T47D) was > 31.6 µM (inactive), the GI50 (MCF7) was > 10 µM (inactive) and the GI50 (OVCAR-4) was > 100 µM (inactive). For the same compound, the GI50 (HCC 2998) was > 31.6 µM (inactive), the GI50 (MDA-N) was > 31.6 µM (inactive) and the GI50 (HOP-92) was 11.1 µM (inactive). The GI50 (NCI-H226) was > 31.6 µM (inactive), the GI50 (BT-549) was > 31.6 µM (inactive) and the GI50 (ACHN) was > 31.6 µM (inactive). For the same compound, the GI50 (CCRF-CEM) was > 31.6 µM (inactive), the GI50 (TK-10) was > 31.6 µM (inactive) and the GI50 (U-251) was > 100 µM (inactive). For the same compound, the GI50 (OVCAR-5) was > 100 µM (inactive), the GI50 (NCI-H460) was > 31.6 µM (inactive) and the GI50 (COLO 205) was > 100 µM (inactive). For the same compound, the GI50 (M14) was > 31.6 µM (inactive), the GI50 (DU-145) was > 31.6 µM (inactive) and the GI50 (SK-OV-3) was > 31.6 µM (inactive). For the same compound, the GI50 (SNB-75) was > 31.6 µM (inactive), the GI50 (A498) was > 31.6 µM (inactive) and the GI50 (NCI/ADR-RES) was > 31.6 µM (inactive). For the same compound, the GI50 (LOX IMVI) was > 31.6 µM (inactive), the GI50 (MDA-MB-435) was > 31.6 µM (inactive) and the GI50 (SNB-19) was > 31.6 µM (inactive). For the same compound, the GI50 (SW-620) was > 31.6 µM (inactive), the GI50 (K562) was > 31.6 µM (inactive) and the GI50 (OVCAR-3) was > 31.6 µM (inactive). For the same compound, the GI50 (IGROV-1) was > 31.6 µM (inactive), the GI50 (786-0) was > 100 µM (inactive) and the GI50 (SK-MEL-2) was > 100 µM (inactive). For the same compound, the GI50 (HL-60) was > 31.6 µM (inactive), the GI50 (UO-31) was > 31.6 µM (inactive) and the GI50 (NCI-H522) was > 31.6 µM (inactive). The GI50 (SN12C) was > 31.6 µM (inactive), the GI50 (SF-295) was > 31.6 µM (inactive) and the GI50 (SK-MEL-5) was > 31.6 µM (inactive). The GI50 (EKVX) was > 31.6 µM (inactive), the GI50 (UACC-62) was > 31.6 µM (inactive) and the GI50 (HCT-116) was > 31.6 µM (inactive). For the same compound, the GI50 (SF-539) was > 31.6 µM (inactive), the GI50 (MDA-MB-231) was > 31.6 µM (inactive) and the GI50 (KM12) was > 31.6 µM (inactive). The GI50 (MOLT-4) was > 31.6 µM (inactive), the GI50 (UACC-257) was > 31.6 µM (inactive) and the GI50 (RXF 393) was > 31.6 µM (inactive). The GI50 (SF-268) was > 31.6 µM (inactive), the GI50 (CAKI-1) was > 31.6 µM (inactive) and the GI50 (HOP-62) was > 31.6 µM (inactive). For the same compound, the GI50 (NCI-H23) was > 31.6 µM (inactive), the GI50 (Hs-578T) was > 31.6 µM (inactive) and the GI50 (OVCAR-8) was > 31.6 µM (inactive). For the same compound, the GI50 (HT-29) was > 31.6 µM (inactive), the GI50 (HCT-15) was > 31.6 µM and the GI50 (Malme-3M) was > 31.6 µM (inactive). The GI50 (SK-MEL-28) was > 31.6 µM (inactive).
